According to paper PMC4608799, “Structural and Functional Analysis of Murine Polyomavirus Capsid Proteins Establish the Determinants of Ligand Recognition and Pathogenicity” (PLoS Pathogens, 2015):

Columns and labels:
RA VP1 = target: T1, RA VP1 (Mouse polyomavirus (strain p16 small-plaque), UniProt P49302); test: concentration-dependent crystal soaking, electron density quantified; format: binding; conditions: 1.5 M ammonium sulfate (competes with the Neu5Ac carboxylate), 20 C crystals, 30 min soak
T1 construct: residues 33-316, homopentamer; N-terminal His-tag cut by thrombin leaving GSHM; pET15b, E. coli BL21

PTA VP1 = target: T2, PTA VP1 (Alphapolyomavirus muris, UniProt A0A247D727); test: X-ray crystal structure of complex; conditions: receptor-binding pocket
T2 construct: residues 33-316, homopentamer; N-terminal His-tag cut by thrombin leaving GSHM; pET15b, E. coli BL21

Structure (SMILES)	concentration-dependent crystal soaking, electron density quantified (RA VP1)	X-ray crystal structure of complex (PTA VP1)
CC(=O)N[C@H]1[C@H](O[C@H]2[C@@H](O)[C@@H](CO)O[C@@H](O[C@H]3[C@H](O)[C@@H](O)C(O)O[C@@H]3CO)[C@@H]2O)O[C@H](CO[C@]2(C(=O)O)C[C@H](O)[C@@H](NC(C)=O)[C@H]([C@H](O)[C@H](O)CO)O2)[C@@H](O)[C@@H]1O[C@@H]1O[C@H](CO)[C@H](O)[C@H](O[C@]2(C(=O)O)C[C@H](O)[C@@H](NC(C)=O)[C@H]([C@H](O)[C@H](O)CO)O2)[C@H]1O (some centres unmarked) [DSLNT]	Electron density of GT1a, GD1a, and DSLNT in RA VP1	–
CC(=O)N[C@H]1[C@H]([C@H](O)[C@H](O)CO)O[C@@](O[C@H](CO)[C@@H](O)[C@@H]2O[C@@](O[C@H]3[C@@H](O)[C@@H](CO)O[C@@H](O[C@H]4[C@H](O)[C@@H](O)C(O)O[C@@H]4CO)[C@@H]3O)(C(=O)O)C[C@H](O)[C@H]2NC(C)=O)(C(=O)O)C[C@@H]1O (some centres unmarked) [GD3, glycan portion of GD3]	–	the crystal structure of PTA with the glycan portion of GD3 shows an identical binding mechanism
